We go through 16 substances from patent publication US6503881B2 (priority 1996, dated 2003).

For the assay, the system named is bacteria.
The mark [1] stands for this setting: A. calcoaceticus AC002, agarose dilution.
[2] abbreviates: E. cloacae ECL007, agarose dilution.
Setting [3] is: E. coli ECO005, agarose dilution.
Where [4] appears, read: E. faecalis EFS001, agarose dilution.
Where [5] appears, read: E. faecalis EFS008, agarose dilution.
Where [6] appears, read: K. pneumoniae KP001, agarose dilution.
[7] abbreviates: P. aeruginosa PA004, agarose dilution.
Where [8] appears, read: S. aureus SA014, agarose dilution.
The mark [9] stands for this setting: S. aureus SA093, agarose dilution.
Setting [10] is: S. epidermidis SE010, agarose dilution.
The mark [11] stands for this setting: S. maltophilia SMA002, agarose dilution.
Where [12] appears, read: S. marcescens SMS003, agarose dilution.

Where two headings read alike, the source gives them in different places. Bounds are passed on as bounds.

For the substance I L R Y V Y Y V Y R R K [MBI 11A8CN], the MIC by setting is: (A. calcoaceticus AC002) 8 µg/mL; (E. cloacae ECL007) more than 128 µg/mL; (E. coli ECO005) 32 µg/mL; (E. faecalis EFS001) 4 µg/mL; (K. pneumoniae KP001) 128 µg/mL; (P. aeruginosa PA004) more than 128 µg/mL. The MIC was 1 µg/mL (S. aureus SA093), 6 µg/mL (S. epidermidis SE010), 32 µg/mL (S. maltophilia SMA002) and more than 128 µg/mL (S. marcescens SMS003).
Consider i L K K W P W W P W R R k [MBI 11E3CN], for which the MIC by setting is: (A. calcoaceticus AC001) 16 µg/mL; (E. cloacae ECL007) more than 128 µg/mL; (E. coli ECO001) 4 µg/mL; (E. faecalis EFS004) 8 µg/mL; (E. faecium EFM003) 2 µg/mL; (H. influenzae HIN002) more than 128 µg/mL. For the same substance, the MIC (K. pneumoniae KP002) is 32 µg/mL; the MIC (P. aeruginosa PA041) is 64 µg/mL; the MIC (P. mirabilis PM001) is more than 128 µg/mL; the MIC (S. aureus SA010) was 2 µg/mL; the MIC (S. epidermidis SE002) was 1 µg/mL; the MIC (S. maltophilia SMA001) was determined as 32 µg/mL. In addition, the MIC by setting is: (S. marcescens SMS004) more than 128 µg/mL; (S. pneumoniae SBSPN2) more than 128 µg/mL; (S. pneumoniae SPN044) more than 128 µg/mL; (S. pyogenes SPY002) 16 µg/mL.
For L R W W W P W R R K [MBI 11G25CN], the MIC is, setting by setting: under setting [1], 2 µg/mL; under setting [2], more than 128 µg/mL; under setting [3], 8 µg/mL; under setting [4], 2 µg/mL; under setting [5], 16 µg/mL; under setting [6], 16 µg/mL. In addition, the MIC was 64 µg/mL under setting [7]; 2 µg/mL under setting [8]; 1 µg/mL under setting [9]; 2 µg/mL under setting [10]; 32 µg/mL under setting [11]; more than 128 µg/mL under setting [12].
As to I L K K W P W W P W R R K [MBI 11CNW1], the MIC (A. calcoaceticus AC002) was 8 µg/mL; the MIC (E. cloacae ECL007) was found to be 64 µg/mL; the MIC (E. coli ECO005) was 32 µg/mL; the MIC (E. faecalis EFS001) is 8 µg/mL; the MIC (K. pneumoniae KP001) turned out to be 32 µg/mL; the MIC (P. aeruginosa PA004) was 64 µg/mL. In addition, the MIC is 4 µg/mL (S. aureus SA010), 32 µg/mL (S. maltophilia SMA002) and more than 128 µg/mL (S. marcescens SMS003).
Regarding I L K W P W W P W R R K [MBI 11B3CN], the MIC (A. calcoaceticus AC001) is 64 µg/mL; the MIC (E. cloacae ECL007) was more than 128 µg/mL; the MIC (E. coli ECO002) was 16 µg/mL; the MIC (E. faecalis EFS001) was 16 µg/mL; the MIC (E. faecium EFM001) was determined as 8 µg/mL; the MIC (K. pneumoniae KP002) was found to be 64 µg/mL. Besides, the MIC is, setting by setting: (P. aeruginosa PA003) more than 128 µg/mL; (S. aureus SA010) 4 µg/mL; (S. maltophilia SMA002) 32 µg/mL; (S. marcescens SMS004) more than 128 µg/mL.
As to “I L K K W P W W P W R R K M [MBI 11D11H]”, the MIC runs as follows: (A. calcoaceticus AC001) more than 64 µg/mL; (E. cloacae ECL007) more than 64 µg/mL; (E. coli ECO002) 32 µg/mL; (K. pneumoniae KP001) more than 64 µg/mL; (P. aeruginosa PA001) more than 64 µg/mL; (S. aureus SA008) 4 µg/mL. Moreover, the MIC is more than 64 µg/mL (S. maltophilia SMA002) and more than 64 µg/mL (S. marcescens SMS004).
Consider I L K K W V W W V W R R K [MBI 11F1CN], for which the MIC reads like this: (E. cloacae ECL007) more than 128 µg/mL; (E. coli ECO003) 8 µg/mL; (E. faecalis EFS004) 16 µg/mL; (E. faecium EFM003) 2 µg/mL; (K. pneumoniae KP002) 32 µg/mL; (P. aeruginosa PA004) 64 µg/mL. The MIC is, setting by setting: (S. aureus SA009) 2 µg/mL; (S. marcescens SBSM1) more than 128 µg/mL; (S. marcescens SMS003) more than 128 µg/mL.
On to I L K K W P W W P R R K [MBI 11G6ACN], for which the MIC by setting is: (A. calcoaceticus AC002) 4 µg/mL; (E. coli ECO005) 64 µg/mL; (E. faecalis EFS008) more than 128 µg/mL; (S. aureus SA014) 64 µg/mL; (S. epidermidis SE010) 32 µg/mL; (S. maltophilia SMA002) more than 128 µg/mL.
K R R W P W W P W R L I [MBI 11B7CNR]: the MIC is, setting by setting: (A. calcoaceticus AC002) 4 µg/mL; (E. cloacae ECL007) 64 µg/mL; (E. coli ECO005) 8 µg/mL; (E. faecalis EFS001) 4 µg/mL; (K. pneumoniae KP001) 8 µg/mL; (P. aeruginosa PA004) 64 µg/mL. Moreover, the MIC reads like this: (S. aureus SA093) 2 µg/mL; (S. epidermidis SE010) 4 µg/mL; (S. maltophilia SMA002) 32 µg/mL; (S. marcescens SMS003) more than 128 µg/mL.
Turning to W R W W K P K W R W P K W [MBI 11J02CN], the MIC was 4 µg/mL under setting [1]; 64 µg/mL under setting [2]; 4 µg/mL under setting [3]; 4 µg/mL under setting [4]; 16 µg/mL under setting [5]; 4 µg/mL under setting [6]. This substance yielded an MIC under setting [7] of 32 µg/mL; an MIC under setting [8] of 2 µg/mL; an MIC under setting [9] of 1 µg/mL; an MIC under setting [10] of 2 µg/mL; an MIC under setting [11] of 8 µg/mL; an MIC under setting [12] of more than 128 µg/mL.
For the substance I L K K W P W W P W R R K [MBI 11M8], the MIC (E. faecalis EFS002) turned out to be 32 µg/mL, the MIC (E. faecium EFM002) worked out at 32 µg/mL and the MIC (S. aureus SA008) is 32 µg/mL.
In the case of I L K K W P W W P W R R M [MBI 11D12H], the MIC is more than 64 µg/mL (A. calcoaceticus AC001); more than 64 µg/mL (E. cloacae ECL007); 64 µg/mL (E. coli ECO003); 16 µg/mL (E. faecalis EFS004); more than 64 µg/mL (K. pneumoniae KP002); more than 64 µg/mL (P. aeruginosa PA004). In addition, the MIC is 16 µg/mL (S. aureus SA014), more than 64 µg/mL (S. maltophilia SMA002) and more than 64 µg/mL (S. marcescens SMS004).
As to W W K K W P W W P W R R K [MBI 11C5CN], the MIC was 32 µg/mL (A. calcoaceticus AC001); more than 128 µg/mL (E. cloacae ECL007); 8 µg/mL (E. coli ECO001); 16 µg/mL (E. faecalis EFS002); 2 µg/mL (E. faecium EFM003); 16 µg/mL (K. pneumoniae KP002). Moreover, the MIC reads like this: (P. aeruginosa PA003) 64 µg/mL; (S. aureus SA009) 2 µg/mL; (S. epidermidis SE002) 2 µg/mL; (S. maltophilia SMA002) 16 µg/mL; (S. marcescens SMS004) more than 28 µg/mL.
Turning to I L P W K W P W W P W R R [MBI 10A], the MIC worked out at 16 µg/mL (E. faecalis EFS004), 8 µg/mL (E. faecium EFM003) and 8 µg/mL (S. aureus SA010).
Turning to I L K K W W W P W R K [MBI 11D14CN], the MIC worked out at 32 µg/mL (E. faecalis EFS002), 1 µg/mL (E. faecium EFM003) and 4 µg/mL (S. aureus SA009).
On to “ILKKWPWWPWRRKMILKKAGS [MBI 11D4CN]”, for which the MIC (A. calcoaceticus AC001) was more than 64 µg/mL; the MIC (E. cloacae ECL007) was more than 64 µg/mL; the MIC (E. coli ECO003) was 64 µg/mL; the MIC (E. faecalis EFS002) came out at 16 µg/mL; the MIC (E. faecium EFM002) is 1 µg/mL; the MIC (K. pneumoniae KP002) was more than 64 µg/mL. In addition, the MIC reads like this: (P. aeruginosa PA004) more than 64 µg/mL; (S. aureus SA009) 4 µg/mL; (S. maltophilia SMA001) more than 64 µg/mL; (S. marcescens SMS004) more than 64 µg/mL.
